We go through 55 compounds from ChEMBL document CHEMBL3856234, “Development of Multifunctional Pyrimidinylthiourea Derivatives as Potential Anti-Alzheimer Agents” (J Med Chem, 2016).

Data set [1] is filed under the species Rattus norvegicus. Description: Selectivity index, ratio of IC50 for rat serum BuChE to IC50 for rat cortex AChE.
Data set [2] can be described thus: Antioxidant activity assessed as trolox equivalent of AAPH radical scavenging activity preincubated for 10 mins followed by AAPH challenge measured every min for 180 mins by ORAC-FL assay. It is filed as functional.
A further data set addresses T1, Acetylcholinesterase (Rattus norvegicus, UniProt P37136).
T1 sequence (P37136 whole entry): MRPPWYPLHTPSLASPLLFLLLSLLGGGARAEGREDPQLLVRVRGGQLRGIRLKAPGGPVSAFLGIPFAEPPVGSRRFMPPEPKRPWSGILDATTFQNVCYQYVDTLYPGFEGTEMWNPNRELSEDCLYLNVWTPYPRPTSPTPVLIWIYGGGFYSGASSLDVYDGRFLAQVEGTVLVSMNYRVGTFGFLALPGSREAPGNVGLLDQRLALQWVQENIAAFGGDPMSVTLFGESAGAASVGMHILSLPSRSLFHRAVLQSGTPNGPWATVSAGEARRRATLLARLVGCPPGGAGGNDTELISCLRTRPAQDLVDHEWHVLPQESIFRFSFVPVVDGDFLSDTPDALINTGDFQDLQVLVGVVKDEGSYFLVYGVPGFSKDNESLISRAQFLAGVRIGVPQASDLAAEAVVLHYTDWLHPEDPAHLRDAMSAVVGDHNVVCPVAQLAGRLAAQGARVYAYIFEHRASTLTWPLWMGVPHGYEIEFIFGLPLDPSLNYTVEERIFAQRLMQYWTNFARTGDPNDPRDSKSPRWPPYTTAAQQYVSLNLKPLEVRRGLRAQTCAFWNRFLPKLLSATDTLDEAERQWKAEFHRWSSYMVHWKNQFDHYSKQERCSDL
Description: Inhibition of rat cortex AChE using acetylthiocholine iodide as substrate measured after 20 mins by Ellman's method. (DTNB colorimetry detects thiols as they appear.)

Data set [3] is described as follows: Solubility of the compound in water measured after 24 hrs by HPLC analysis. In kind it is physicochemical.
The nature of data set [4]: Permeability of the compound in PBS/EtOH (7:3) buffer measured after 10 hrs by PAMPA assay. In kind it is ADME. The note with it: read-out: Peff.
Data set [5] addresses T2, Acetylcholinesterase (Rattus norvegicus) (UniProt P37136).
T2 sequence (whole entry): T1 sequence (P37136 whole entry)
As to the kind of experiment: Inhibition of rat cortex AChE at 40 uM using acetylthiocholine iodide as substrate measured after 20 mins by Ellman's method relative to control.

Data set [6] is filed under the species Rattus norvegicus. As to the kind of experiment: Inhibition of rat serum BuChE at 40 uM using butyrylthiocholine as substrate measured after 20 mins by Ellman's method relative to control.
Data set [7] in a line: Inhibition of rat serum BuChE using butyrylthiocholine as substrate measured after 20 mins by Ellman's method.

Usually IC50 stands for the midpoint of a concentration-inhibition curve. Low values mean greater potency in that assay, high ones weaker potency in that assay. For orientation: solubility means how much of the substance goes into solution per volume. Read a low solubility as a poorly soluble substance. In general, inhibition refers to the change of the read-out against control, counted positive when it falls.

Regarding `CCNC(=S)Nc1cc(-n2cnc(CN(C)Cc3ccccc3)c2)ncn1`, the Ratio IC50 in the data set listed under Rattus norvegicus [1] stood at 84. In data set [2], the Activity (umolequiv/umol) is 1.25.

Consider `CCNC(=S)Nc1cc(-n2cnc(I)c2)ncn1`, for which, on Acetylcholinesterase, the IC50 worked out at 0.636 µM.

In data set [3], `CCNC(=S)Nc1cc(-n2cnc(CN(C)Cc3ccccc3)c2)ncn1.Cl` came in with a solubility at 24 h of 2.74 mg/mL.

Regarding `CCNC(=S)Nc1cc(-n2ccnc2C)ncn1`, on Acetylcholinesterase, the IC50 came to 6.1 µM.

For the compound `CNCCCN1c2ccccc2CCc2ccccc21` [DESIPRAMINE], in data set [4], the Papp at 10 h turned out to be 166 nm/s.

For `CCNC(=S)Nc1cc(-n2cnc(C)c2)ncn1`, it took 3.25 µM to reach half-maximal inhibition against Acetylcholinesterase (IC50).

In data set [5], `CCNC(=S)Nc1nc2c(c(-n3ccnc3)n1)CCC2` displayed an inhibition of 24.4%. Further, the IC50 at Acetylcholinesterase was > 40 µM.

`CCNC(=S)Nc1cc(-n2ccnc2)nc(C)n1` registered an inhibition in data set [5] of 71.4%. The compound further yielded an IC50 against Acetylcholinesterase of 8.72 µM.

In turn, `CCNC(=S)Nc1cc(-n2cnc(Br)c2)ncn1` showed an IC50 against Acetylcholinesterase of 0.975 µM.

Regarding `CCNC(=S)Nc1cc(-n2ccnc2)ncn1`, the inhibition in data set [5] is 72.8%. The same compound came in with an IC50 against Acetylcholinesterase of 1.59 µM.

In the case of `CCNC(=S)Nc1cc(-n2cnc(CN(CC)CC)c2)ncn1`, in data set [4], the Papp at 10 h came to 10 nm/s. The compound further came in with an inhibition in the data set filed under Rattus norvegicus [6] of 20.2%. In the data set filed under Rattus norvegicus [1], the Ratio IC50 was > 348. In data set [2], the Activity (umolequiv/umol) came to 1.31. In addition, the IC50 on Acetylcholinesterase was 0.115 µM; in data set [7] it was > 40 µM.

On to `CCNC(=S)Nc1cc(-n2cnc3ccccc32)ncn1`, for which the inhibition in data set [5] turned out to be 66.2%. Besides, at Acetylcholinesterase, the IC50 amounted to 7.84 µM.

For the compound `CC(C)NC(=S)Nc1cc(-n2cccn2)ncn1`, the inhibition in data set [5] came to 36.2%.

In data set [5], `CCNC(=S)Nc1cc(N2CCOCC2)ncn1` had an inhibition of 54.1%. At Acetylcholinesterase, the IC50 came out at 23.2 µM.

As to `S=C(NCc1ccccc1)Nc1cc(-n2cccn2)ncn1`, the inhibition in data set [5] is 17.3%.

In turn, `CCNC(=S)Nc1cc(-n2cnc(CNCc3ccccc3)c2)ncn1` showed an inhibition in the data set listed under Rattus norvegicus [6] of 48%. Besides, the Ratio IC50 in the data set filed under Rattus norvegicus [1] was > 146. Further, the Activity (umolequiv/umol) in data set [2] was 1.3. The IC50 was 0.274 µM on Acetylcholinesterase and > 40 µM in data set [7].

As for `CCNC(=S)Nc1cc(-n2cnc(CN3CCCCCC3)c2)ncn1`, the Papp at 10 h in data set [4] was found to be 53 nm/s. In addition, the Ratio IC50 in the data set listed under Rattus norvegicus [1] was 59. Also, the Activity (umolequiv/umol) in data set [2] was found to be 1.24. Further, the figures for the IC50 (at Acetylcholinesterase; in data set [7]) were 0.121 µM and 7.19 µM, respectively.

In data set [5], `c1ccc(CNc2cc(-n3cccn3)ncn2)cc1` came in with an inhibition of 10.8%.

`CC(=O)Nc1cc(-n2cccn2)ncn1` gave an inhibition in data set [5] of 5.09%.

`CCNC(=S)Nc1cc(N2CCCC2)ncn1` showed an inhibition in data set [5] of 39.2%. Besides, at Acetylcholinesterase, the IC50 is > 40 µM.

The compound `CCNc1cc(-n2cccn2)ncn1` came in with an inhibition in data set [5] of 32.1%.

On to `CCNC(=S)Nc1cc(N2CCN(C)CC2)ncn1`, for which, in data set [5], the inhibition worked out at 70.1%. On Acetylcholinesterase, the IC50 turned out to be 3.26 µM.

The compound `CCNC(=S)Nc1cc(-n2cnc([N+](=O)[O-])c2)ncn1` showed an IC50 at Acetylcholinesterase of 0.17 µM.

Consider `CCNC(=S)Nc1cc(-n2cnc(CNC)c2)ncn1`, for which the inhibition in the data set filed under Rattus norvegicus [6] came to 27.3%. For the same compound, the Ratio IC50 in the data set filed under Rattus norvegicus [1] was > 159. The Activity (umolequiv/umol) in data set [2] came out at 1.32. Also, the IC50 against Acetylcholinesterase is 0.251 µM; in data set [7] it was > 40 µM.

On to `CCNC(=S)Nc1cc(-n2cncn2)ncn1`, for which the inhibition in data set [5] is 66.6%. In addition, half-maximal inhibition at Acetylcholinesterase (IC50) required 1.05 µM.

As for `CCCNC(=S)Nc1cc(-n2cccn2)ncn1`, the inhibition in data set [5] is 64%. At Acetylcholinesterase, this compound gave an IC50 of 22 µM.

For `CCNC(=S)Nc1cc(-n2cnc(C=O)c2)ncn1`, the inhibition in the data set filed under Rattus norvegicus [6] is 4.63%. Further, in the data set listed under Rattus norvegicus [1], the Ratio IC50 was > 241. Moreover, the Activity (umolequiv/umol) in data set [2] was 0.31. Besides, the results for the IC50 (on Acetylcholinesterase; in data set [7]) were 0.166 µM and > 40 µM, respectively.

For the compound `CCNC(=S)Nc1cc(-n2cnc(CNC3CCCCC3)c2)ncn1`, it took 0.424 µM to reach half-maximal inhibition on Acetylcholinesterase (IC50).

Take `CNC(=S)Nc1cc(-n2cccn2)ncn1`: in data set [5], the inhibition was found to be 46%.

As to `CCNC(=S)Nc1ccnc(-n2ccnc2)n1`, in data set [5], the inhibition is 46.6%. In addition, the IC50 against Acetylcholinesterase was > 40 µM.

Take `CCCc1cc(-n2cccn2)ncn1`: the inhibition in data set [5] is 9.88%.

On to `CCNC(=S)Nc1cc(-n2cnc(CN3CCN(C)CC3)c2)ncn1`, for which, in data set [4], the Papp at 10 h is 19.5 nm/s. For the same compound, the inhibition in the data set filed under Rattus norvegicus [6] was determined as 10.8%. Moreover, the Ratio IC50 in the data set listed under Rattus norvegicus [1] is > 388. Besides, in data set [2], the Activity (umolequiv/umol) worked out at 1.23. Further, the figures for the IC50 (against Acetylcholinesterase; in data set [7]) were 0.103 µM and > 40 µM, respectively.

Take `CC(C)(C)NC(=S)Nc1cc(-n2cccn2)ncn1`: in data set [5], the inhibition was 11.3%.

Compound `CCCCNC(=S)Nc1cc(-n2cccn2)ncn1` yielded an inhibition in data set [5] of 66.6%. The compound further had an IC50 on Acetylcholinesterase of 23.4 µM.

Turning to `CCNC(=S)Nc1cc(-n2cnc(CN(C)C)c2)ncn1`, the Papp at 10 h in data set [4] stood at 30 nm/s. Besides, in the data set filed under Rattus norvegicus [6], the inhibition came out at 7.02%. The Ratio IC50 in the data set listed under Rattus norvegicus [1] is > 261. In data set [2], the Activity (umolequiv/umol) stood at 1.17. Besides, the IC50 against Acetylcholinesterase is 0.153 µM; in data set [7] it was > 40 µM.

For the compound `CCNC(=S)Nc1cc(-n2cnc(CN3CCOCC3)c2)ncn1`, the Papp at 10 h in data set [4] stood at 3.5 nm/s. Moreover, in the data set filed under Rattus norvegicus [6], the inhibition came out at 13.3%. Besides, the Ratio IC50 in the data set listed under Rattus norvegicus [1] is > 132. Also, in data set [2], the Activity (umolequiv/umol) was found to be 1.48. The IC50 is 0.304 µM against Acetylcholinesterase and > 40 µM in data set [7].

In data set [5], `CCNC(=S)Nc1ncnc(-n2ccnc2)c1C` came in with an inhibition of 45.9%. The IC50 at Acetylcholinesterase is > 40 µM.

In the case of `CCNC(=S)Nc1cc(-n2cccc2)ncn1`, in data set [5], the inhibition was 13.8%. Also, the IC50 on Acetylcholinesterase is > 40 µM.

Consider `Nc1cc(-n2cccn2)ncn1`, for which the inhibition in data set [5] came to 18.9%.

Take `CCNC(=S)Nc1cc(-n2cnc(C(F)(F)F)c2)ncn1`: on Acetylcholinesterase, inhibition was half-maximal at 0.957 µM (IC50).

As for `CCNC(=S)Nc1cc(-n2cnc(CN3CCCCC3)c2)ncn1`, the Papp at 10 h in data set [4] worked out at 50 nm/s. The Ratio IC50 in the data set filed under Rattus norvegicus [1] is 164. Also, the Activity (umolequiv/umol) in data set [2] came out at 1.27. In addition, the IC50 at Acetylcholinesterase stood at 0.111 µM; in data set [7] it was 18.2 µM.

At Acetylcholinesterase, `CCNC(=S)Nc1cc(-n2cnc(CO)c2)ncn1` showed an IC50 of 0.995 µM.

In turn, `CCNC(=S)Nc1cc(-n2cnc(C(=O)OC)c2)ncn1` registered an IC50 against Acetylcholinesterase of 0.347 µM.

Regarding `CCNC(=S)Nc1cc(-n2ccnn2)ncn1`, in data set [5], the inhibition worked out at 61.5%. This compound also came in with an IC50 on Acetylcholinesterase of 14.4 µM.

As for `S=C(NCc1cccc(Cl)c1)Nc1cc(-n2cccn2)ncn1`, the inhibition in data set [5] was 0%.

In turn, `CCNC(=S)Nc1cc(-n2cnc(Cl)c2)ncn1` displayed an IC50 on Acetylcholinesterase of 0.615 µM.

As to `CCNC(=S)Nc1cc(-n2ccnc2CC)ncn1`, at Acetylcholinesterase, the IC50 was determined as 6.7 µM.

In data set [3], `CCNC(=S)Nc1cc(-n2cnc(CN3CCCC3)c2)ncn1.Cl` returned a solubility at 24 h of 19.5 mg/mL.

Compound `CCNC(=S)Nc1nccc(-n2ccnc2)n1` registered an inhibition in data set [5] of 64.9%. Besides, on Acetylcholinesterase, inhibition was half-maximal at 8.45 µM (IC50).

In turn, `CCNCc1cn(-c2cc(NC(=S)NCC)ncn2)cn1` displayed an inhibition in the data set listed under Rattus norvegicus [6] of 21.5%. Moreover, the Ratio IC50 in the data set filed under Rattus norvegicus [1] was > 117. Also, in data set [2], the Activity (umolequiv/umol) came out at 1.33. Further, the IC50 at Acetylcholinesterase is 0.342 µM; in data set [7] it was > 40 µM.

For the compound `S=C(Nc1cc(-n2cccn2)ncn1)NC1CCCCC1`, in data set [5], the inhibition turned out to be 11.2%.

In data set [5], `CCNC(=O)Nc1cc(-n2cccn2)ncn1` registered an inhibition of 22.1%.

`CCNC(=S)Nc1cc(-n2cccn2)ncn1`: the inhibition in data set [5] was found to be 77.3%. The IC50 on Acetylcholinesterase amounted to 8.14 µM.

In the case of `CCNC(=S)Nc1cc(NCc2ccccc2)ncn1`, in data set [5], the inhibition came out at 10.9%. Moreover, the IC50 against Acetylcholinesterase is > 40 µM.

Take `CCOc1cc(-n2cccn2)ncn1`: the inhibition in data set [5] is 11.8%.
